Results on ten compounds are retold here after US5500444A, “Cardioprotective tocopherol analogs” (Hoechst Marion Roussel, Inc., priority 1994, dated 1996).

“And” between values parts separate entries of the source, which are not always exact repeats. Equal entries are not always repeated. Where two headings read alike, the source gives them in different places.

The nature of data set [1]: superoxide radicals generated by xanthine oxidase/xanthine, detected by reduction of nitro blue tetrazolium. In kind it is biochemical. The note with it: for superoxide radicals scavenged: at 200 μM; for IC50: read-out: IC50 (superoxide radical scavenging). On the procedure:
In another evaluation, superoxide radicals were generated by 4 mU of xanthine oxidase in the presence of 0.1 mM xanthine and detected by reduction of 40 μM nitro blue tetrazolium to the diformazan dye in a spectrophotometric assay as described by C. Beauchamp and I. Fridovich, (1971) Analyt. Biochem. 44, 276-287. 30 U of superoxide dismutase inhibited this reduction by 90% which, therefore, was due to superoxide radicals. […] Trolox is a commercial antioxidant and is a known potent superoxide radical scavenger. For comparison, D,L-penicillamine and N-2-mercaptopropionyl glycine at 200 μM scavenged only 14% of the superoxide radicals. Neither of the scavengers inhibited xanthine oxidase, when tested at 200 μM.

A short description of data set [2]: autoxidation of 1-epinephrine (superoxide radical reduction, Misra and Fridovich). In kind it is biochemical. The conditions noted are these: 1-epinephrine 1×10^-4 M, EDTA 1×10^-4 M, 30° C.; read-out: 50% inhibition of the autoxidation rate (ID50). The method, then:
2-(3,4-dihydro-6-hydroxy-2,5,7,8-tetramethyl-2H-1-benzopyran-2-yl)ethyl-N,N,N-trimethylammonium bromide, described in Example 1, was evaluated for its ability to reduce superoxide radicals in an assay described by H. P. Misra and J. Fridovich, 1972, J. Biol. Chem. 247, 3170-5. In this assay, the rate of autoxidation of 1-epinephrine (1×10^-4 M) in the presence of EDTA (1×10^-4 M) at 30° C. is followed spectrophotometrically following the increase of absorbance at 480 mn.
Misra and Fridovich report that bovine superoxide dismutase gave 50% inhibition at 46mg per ml.

Data set [3] can be described thus: oral absorption and excretion. It counts as in vivo.
The subject of the next data set is human α1 Pi. Description: Protection of α1 Pi from leukocyte-mediated inactivation (residual elastase inhibitory capacity). In kind it is cell-based. The conditions noted are these: for Relative PC50: concentration to protect 50% of elastase inhibitory capacity of α1 Pi, mean ± S.D. (n = 3) for Compound A; for inactivation of α1 Pi: zymosan-stimulated human leukocytes. From the text: Stimulated human leukocytes release radicals and other oxygen metabolites, which, during inflammation, act as microbicidal agents. At the same time, they release proteolytic enzymes, such as elastase, which are also microbicidal but potentially threaten the connective tissue of the host. An endogenous α1 -proteinase inhibitor (α1 Pi) normally protects the host tissue from proteolytic digestion. α1 Pi is, however, inactivated by the leukocyte-derived oxidants. The inactivation of α1 Pi is antagonized by the disclosed radical scavengers 2-(3,4-dihydro-6-hydroxy-2,5,7,8-tetramethyl-2H-1-benzopyran-2-yl)-N,N,N-trimethylethanammonium, 4-methylbenzylsulfonate (Compound A) and 3,4-dihydro-2-(2-dimethylaminoethyl)-2,5,7,8-tetramethyl-2H-1-benzopyran-6-ol (Compound B). The concentration needed to protect 50% of the elastase inhibitory capacity of α1 Pi (PC50) depends on the amount of stimulated leukocytes present.
The procedure described by Skosey and Chow was followed (see Skosey, J. L. and Chow, D. C. (1985) In Handbook of Methods for Oxygen Radical Research (Greenwald, R. A., ed.) pp. 413-416, CRC Press, Boca Raton). In short, human α1 Pi was incubated with zymosan-stimulated human peripheral-blood leukocytes in the absence or presence of the scavengers. The amount of α1 Pi protected from oxidative inactivation was determined by its residual elastase inhibitory capacity.

For a further data set, the system named is β2 -receptors. The note with it: infarcted reperfused heart, rats; Lukovic et al., 1992; cited from earlier work.
Data set [4] relates to rats subjected to myocardial ischemia and reperfusion. The note with it: Lukovic et al., 1992; cited from earlier work.
Data set [5] relates to ligation-induced infarcted and reperfused rats. Description: Cardioprotective effects in ligation-induced infarcted and reperfused rats. It counts as in vivo. The note with it: treated group, 10 mg/kg/h i.v., individual rats No. 1-10. On the procedure:
2-(3,4-Dihydro-2,5,7,8-tetramethyl-6-methylcarbonyloxy-2H-1-benzopyran-2-yl)ethyl-N,N,N-trimethylammonium bromide was evaluated in ligation-induced infarcted and reperfused rats as follows. One of two groups of rats was infused intravenously with a solution of test compound in saline at a rate of 2.3 ml/h (10 mg/kg/h). The control group was infused with saline at the same rate. After 10 min of drug infusion, coronary arteries were ligated surgically for 60 min, ligation was loosened to allow reperfusion for 30 min. The ligation was retied and a dye (Evans Blue) was injected. The animals were sacrificed and the heart ventricles were removed and weighed. The unstained tissue was dissected and weighed; this represents the "area at risk", i.e. the area that was deprived of blood supply by ligation. To determine the infarcted area, the tissue was incubated with 2,3,5-triphenyltetrazolium chloride. Infarcted tissue became light colored and could be dissected and weighed. Thus, for each rat that survived the ligation a measurement of "area at risk" and of "infarcted area" was obtained and the ratio was calculated as given in Tables II and III.

The nature of data set [6]: Affinity for cardiac tissue (radioactivity in heart and blood after intravenous 14C-labelled compound). In kind it is in vivo, rats. The conditions noted are these: rat, 0.91 mg base/kg i.v. The method, then: Following the procedure described in Example 9, but using ^14 C-methyl p-toluenesulfonate in place of "cold material", ^14 C-labelled 2-(3,4-dihydro-2,5,7,8-tetramethyl-6-methylcarbonyloxy-2H-1-benzopyranan-2-yl)ethyl-N,N,N-tri-^14 C-methylammonium p-toluenesulfonate was synthesized. The preparation was diluted with "cold material" to 11.74 μCi/mg base.
24 rats were given 0.91 mg base/kg by intravenous route (by canula into the jugular vein). The animals were sacrificed in groups of 3 at the time periods indicated in Table I. Immediately before sacrifice a 0.5 ml blood sample was taken from an indwelling catheter in the carotid artery. The hearts were removed, blotted and weighed. The samples of tissue and blood were solubiized with Luma Solve (a quaternary ammonium hydroxide preparation) and radioactivity was determined in a scintillation counter.

Data set [7] relates to canine myocardial reperfusion injury. The conditions noted are these: Lucchesi and coworkers; cited from earlier work.
Another data set has as its system hyperlipidemic rabbits. The note with it: Carew et al., 1987; cited from earlier work.
[8] abbreviates: 4 mU xanthine oxidase, 0.1 mM xanthine, 40 μM nitro blue tetrazolium.

For `CC(C)(S)C(N)C(=O)O` (racemic) [D,L-penicillamine, reference compound], the superoxide radicals scavenged in [1] stood at 14%. In addition, the IC50 in data set [2] turned out to be 73 µM.

For the compound `Cc1c(C)c2c(c(C)c1O)CCC(C)(CC[N+](C)(C)C)O2` (racemic) [Example 1, 2-(3,4-Dihydro-6-hydroxy-2,5,7,8-tetramethyl-2H-1-benzopyran-2-yl)ethyl-N,N,N-trimethylammonium bromide], the IC50 in data set [2] was 138 ± 14 µM.

Take `Cc1c(C)c2c(c(C)c1O)CCC(C)(CC[N+](C)(C)C)O2` (centres unmarked) [Compound A, 3,4-Dihydro-6-hydroxy-N,,N,N,2,5,7,8-heptamethyl-2H-1-benzopyran-2-ethanaminium 4-methylbenzenesulfonate]: in data set [3], the oral absorption result is “not or ally absorbed” and the “recovery in the feces” value is “found unchanged in the feces”. Moreover, in data set [3] (listed as Example 11), the oral absorption entry is listed as “not orally absorbed”. Also, the IC50 in data set [1] (setting [8]) was 28 µM. Besides, in the data set with human α1 Pi, the “Relative PC50” value is recorded as 4.5 ± 1 μM/μg leukocyte protein and the “inactivation of α1 Pi” value is recorded as “antagonized”. In addition, the “density of β2 -receptors” value in the data set on β2 -receptors is recorded as “further increased the density of β2 -receptors”. For the same compound, in data set [4], the cardiac output result is recorded as “enhanced” and the contractility result is “enhanced”.

Take `Cc1c(C)c2c(c(C)c1O)CCC(C)(CCN(C)C)O2` (centres unmarked) [Compound B, 3,4-dihydro-2-(2-dimethylaminoethyl)-2,5,7,8-tetramethyl-2H-1-benzopyran-6-ol]: the IC50 in data set [1] (setting [8]) came out at 28 µM. For the same compound, in the data set with human α1 Pi, the “Relative PC50” value came out at 7.3 μM/μg leukocyte protein and the “inactivation of α1 Pi” value was “antagonized”.

Take `CC(=O)Oc1c(C)c(C)c2c(c1C)CCC(C)(CC[N+](C)(C)C)O2.[Br-]` (centres unmarked) [Example 2, 2-(3,4-Dihydro-2,5,7,8-tetramethyl-6-methylcarbonyloxy-2H-1-benzopyran-2-yl)ethyl-N,N,N-trimethylammonium bromide]: the Tissue at risk in data set [5] is 307 mg and 255 mg and 176 mg and 381 mg and 310 mg and 207 mg and 395 mg and 229 mg and 50 mg and 285 mg.

Regarding `CC(=O)Oc1c(C)c(C)c2c(c1C)CCC(C)(CC[N+](C)(C)C)O2.Cc1ccc(S(=O)(=O)[O-])cc1` (centres unmarked) [Example 9, 2-(3,4-Dihydro-2,5,7,8-tetramethyl-6-methylcarbonyloxy-2H-1-benzopyran-2-yl)ethyl-N,N,N-trimethylammonium p-toluenesulfonate], in data set [6], the “affinity for heart tissue” value was “marked affinity for heart tissue”. The Ratio heart/blood in data set [6] (5 min) was 3.05 ± 1.46; in data set [6] (15 min) it was 6.90 ± 8.34; in data set [6] (30 min), 17.33 ± 5.42; in data set [6] (1 hour) it was 20.09 ± 2.54; in data set [6] (2 hours), 21.90 ± 3.56; in data set [6] (4 hours (maximum), p-toluenesulfonate, 0.91 mg/kg, 240 min), 27.15 ± 4.30 and 27.15. Moreover, the Ratio heart/blood is listed as 18.62 ± 2.77 in data set [6] (6 hours) and 15.12 ± 2.69 in data set [6] (8 hours). Moreover, the µg equiv/g stood at 1.59 ± 0.22 µg equiv/g in data set [6] (5 min); 1.73 ± 0.422 µg equiv/g in data set [6] (15 min); 1.91 ± 0.278 µg equiv/g in [6] (30 min); 2.09 ± 0.406 µg equiv/g in data set [6] (1 hour); 1.4 ± 0.042 µg equiv/g in data set [6] (2 hours); 1.25 ± 0.248 µg equiv/g in [6] (4 hours). Moreover, the µg equiv/g in data set [6] (6 hours) worked out at 0.863 ± 0.067 µg equiv/g; in [6] (8 hours), 0.652 ± 0.116 µg equiv/g. In addition, the µg equiv/mL in data set [6] (5 min) is 0.434 ± 0.351 µg equiv/mL; in data set [6] (15 min), 0.59 ± 0.295 µg equiv/mL; in data set [6] (30 min) it was 0.124 ± 0.032 µg equiv/mL; in [6] (1 hour), 0.096 ± 0.008 µg equiv/mL; in [6] (2 hours) it was 0.086 ± 0.041 µg equiv/mL; in data set [6] (4 hours), 0.054 ± 0.013 µg equiv/mL. Besides, the µg equiv/mL came to 0.048 ± 0.007 µg equiv/mL in data set [6] (6 hours) and 0.048 ± 0.012 µg equiv/mL in [6] (8 hours). Besides, the “concentration of drug in heart tissue” value in data set [6] (after 8 h) was found to be 0.65 μg equiv/g.

In data set [1], `CC(S)C(=O)NCC(=O)O` (centres unmarked) [N-2-mercaptopropionyl glycine, reference compound] had a superoxide radicals scavenged of 14%. Moreover, in data set [7], the “canine myocardial reperfusion injury” value is “reduce canine myocardial reperfusion injury”.

With `Cc1c(C)c2c(c(C)c1O)CCC(C)(C(=O)O)O2` (centres unmarked) [Trolox, 3,4dihydro-6-hydroxy-2,5,7,8-tetramethyl-2H-1-benzopyrane-2-carboxylic acid, reference compound], the IC50 in data set [1] (setting [8]) came to 28 µM; in data set [2] it was 105 ± 8 µM. Also, the “protection of α1 Pi (Relative PC50 column)” value with human α1 Pi (at 1 mM) is given as “Inactive at 1 mM”.

`CC(C)(Sc1cc(C(C)(C)C)c(O)c(C(C)(C)C)c1)Sc1cc(C(C)(C)C)c(O)c(C(C)(C)C)c1` [probucol]: in the data set with hyperlipidemic rabbits, the anti-atherosclerotic effect entry is listed as “marked anti-atherosclerotic effect”.

As for superoxide dismutase, in [1] (30 U superoxide dismutase, 4 mU xanthine oxidase, 0.1 mM xanthine, 40 μM nitro blue tetrazolium), the “inhibition of nitro blue tetrazolium reduction” value is on record as 90%. In addition, the “canine myocardial reperfusion injury” value in data set [7] is listed as “reduce canine myocardial reperfusion injury”.
